Measurements as given in patent US12606520B2, “Calpain-2 inhibitor compounds and methods of treatment” (WESTERN UNIVERSITY OF HEALTH SCIENCES, priority 2020, dated 2026).
“Also recorded” adds a separate entry of the source.

Columns and labels:
[1] = target: T1, human calpain-1 (purified from erythrocytes, ecalpain-1) (Homo sapiens, UniProt P07384); assay: Inhibition of human calpain-1 purified from erythrocytes; type: biochemical; conditions: highest concentration tested, 3 μM
T1 construct: human calpain-1 (purified from erythrocytes, ecalpain-1); from tissue; host or cells: human erythrocytes
T1 sequence (P07384 1-714): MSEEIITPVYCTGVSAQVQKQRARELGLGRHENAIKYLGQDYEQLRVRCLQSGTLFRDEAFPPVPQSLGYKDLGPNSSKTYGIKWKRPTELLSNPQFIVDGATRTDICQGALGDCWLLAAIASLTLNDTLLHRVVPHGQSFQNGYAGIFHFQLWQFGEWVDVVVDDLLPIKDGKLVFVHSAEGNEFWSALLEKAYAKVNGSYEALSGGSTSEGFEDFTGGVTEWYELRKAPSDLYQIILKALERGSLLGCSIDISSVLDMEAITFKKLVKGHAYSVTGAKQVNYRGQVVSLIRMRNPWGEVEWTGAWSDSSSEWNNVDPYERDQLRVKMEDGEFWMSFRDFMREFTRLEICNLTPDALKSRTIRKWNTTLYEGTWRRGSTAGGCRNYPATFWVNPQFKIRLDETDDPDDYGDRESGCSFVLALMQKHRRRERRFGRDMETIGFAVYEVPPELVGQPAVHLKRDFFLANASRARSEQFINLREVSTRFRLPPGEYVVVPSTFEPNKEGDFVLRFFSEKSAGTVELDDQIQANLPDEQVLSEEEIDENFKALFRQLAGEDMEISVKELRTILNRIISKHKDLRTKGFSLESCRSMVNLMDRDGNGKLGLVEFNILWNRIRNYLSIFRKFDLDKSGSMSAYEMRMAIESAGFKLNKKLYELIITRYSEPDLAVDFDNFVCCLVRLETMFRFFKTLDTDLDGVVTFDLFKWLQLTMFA
T1 sequence (P04632 1-268 partner): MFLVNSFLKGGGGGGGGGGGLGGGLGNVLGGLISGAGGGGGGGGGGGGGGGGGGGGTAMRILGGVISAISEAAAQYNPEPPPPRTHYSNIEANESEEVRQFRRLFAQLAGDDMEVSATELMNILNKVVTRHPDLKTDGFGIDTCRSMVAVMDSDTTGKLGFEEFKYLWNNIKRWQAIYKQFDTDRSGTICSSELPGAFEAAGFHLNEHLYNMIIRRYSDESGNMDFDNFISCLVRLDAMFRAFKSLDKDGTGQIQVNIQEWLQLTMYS
Procedure: (§1) Various concentrations of NA112 in the liposomal formulation were incubated with human calpain-1 (purified from erythrocytes, ecalpain-1) or a recombinant human calpain-2 (hcalpain-2) and calpain activity assayed as in FIG. 1. IC50 were determined and transformed into Ki values (FIG. 10A, 10B). Values previously obtained with NA112 dissolved in DMSO are shown for comparison (FIG. 10B).
(§2) Cerebellar homogenates from wild-type (WT) or calpain-1 Knock-out (KO) mice were incubated with 20 μM calcium to activate calpain-1 or with 2 mM calcium to activate calpain-2, respectively, and increasing concentrations of NA184.
(§3) Like in NA112, there are 2 chiral centers in NA184. The inhibitory activity of the compounds NA184A (S-S isomer) and NA184B (S-R stereoisomer) against erythrocyte human calpain-1 (ecalpain-1) and recombinant human calpain-2 (hcalpain-2) were determined.

[2] = target: T2, recombinant human calpain-2 (hcalpain-2) (Homo sapiens, UniProt P17655); assay: Inhibition of recombinant human calpain-2; type: biochemical; conditions: highest concentration tested, 3 μM
T2 sequence (P17655 1-700): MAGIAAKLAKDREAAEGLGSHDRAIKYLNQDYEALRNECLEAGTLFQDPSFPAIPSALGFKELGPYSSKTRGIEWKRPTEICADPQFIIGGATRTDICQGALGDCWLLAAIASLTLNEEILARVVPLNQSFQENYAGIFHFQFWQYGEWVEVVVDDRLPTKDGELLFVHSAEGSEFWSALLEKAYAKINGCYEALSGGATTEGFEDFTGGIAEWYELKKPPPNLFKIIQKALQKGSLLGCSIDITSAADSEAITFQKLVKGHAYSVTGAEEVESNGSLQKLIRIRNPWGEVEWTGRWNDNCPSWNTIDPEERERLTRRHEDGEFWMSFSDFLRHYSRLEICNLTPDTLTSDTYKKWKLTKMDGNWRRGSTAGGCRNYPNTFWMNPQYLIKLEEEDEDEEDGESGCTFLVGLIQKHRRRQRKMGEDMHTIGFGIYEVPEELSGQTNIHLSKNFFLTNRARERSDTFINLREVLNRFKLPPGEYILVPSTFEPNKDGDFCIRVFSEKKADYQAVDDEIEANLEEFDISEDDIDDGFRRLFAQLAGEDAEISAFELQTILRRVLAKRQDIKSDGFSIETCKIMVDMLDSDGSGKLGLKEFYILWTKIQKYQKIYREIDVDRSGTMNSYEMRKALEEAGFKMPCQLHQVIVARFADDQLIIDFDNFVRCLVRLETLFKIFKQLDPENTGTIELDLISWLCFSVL
T2 sequence (P04632 1-268 partner): T1 sequence (P04632 1-268 partner)
Procedure: as §1, §2, §3

[3] = Epimerization/inactivation in PBS at 37° C.; type: physicochemical
calpain-1 = target: T3, calpain-1 (Homo sapiens, UniProt P07384); assay: Inhibitory activity of NA112 isomers against calpain-1; type: biochemical; conditions: highest concentration tested, 3 μM
T3 sequence (P07384 1-714): T1 sequence (P07384 1-714)
T3 sequence (P04632 1-268 partner): T1 sequence (P04632 1-268 partner)
Procedure: (§4) The inhibitory activity of the compounds NA112A (S-S isomer) and NA112B (S-R stereoisomer) against calpain-1 and calpain-2 were determined.

calpain-2 = target: T4, calpain-2 (Homo sapiens, UniProt P17655); assay: Inhibitory activity of NA112 isomers against calpain-2; type: biochemical; conditions: highest concentration tested, 3 μM
T4 sequence (P17655 1-700): T2 sequence (P17655 1-700)
T4 sequence (P04632 1-268 partner): T1 sequence (P04632 1-268 partner)
Procedure: as §4

[4] = Stability in mouse plasma at 37° C. (residual inhibition of purified human calpain-2); type: in vitro ADME; conditions: β-cyclodextrin formulation, 10 μM
Procedure: NA112 (C12, 0.2 mM) was incubated with mouse plasma at 37° C. for the indicated periods of time. Aliquots were taken and the degree of inhibition of purified human calpain-2 was measured. Results were normalized to the maximum degree of inhibition (100%) measured at to.
NA112A in β-cyclodextrin formulation (10 μM) was incubated in mouse plasma at 37° C. for the indicated periods of time. Aliquots were taken and the degree of inhibition of purified human calpain-2 was measured. Results were normalized to the maximum degree of inhibition (50%) measured at t0.

SMILES | Inhibitory activity against ecalpain-1 [1] | Inhibitory activity against hcalpain-2 [2] | Epimerization/inactivation in PBS [3] | Inhibitory activity against calpain-1 (calpain-1) | Inhibitory activity against calpain-2 (calpain-2) | Inactivation in mouse plasma [4]
CC[C@H](NC(=O)[C@H](CC(C)C)NC(=O)NCc1ccccc1)C(=O)C(=O)NCc1cccc(Cl)c1OC [NA184A] | expected inhibitory activity | expected inhibitory activity | rapidly inactivated; also recorded: rapid epimerization | – | – | –
CC[C@@H](NC(=O)[C@H](CC(C)C)NC(=O)NCc1ccccc1)C(=O)C(=O)NCc1cc(OC)cc(OC)c1 [NA112B] | – | – | – | no inhibitory activity | no inhibitory activity | –
CC[C@H](NC(=O)[C@H](CC(C)C)NC(=O)NCc1ccccc1)C(=O)C(=O)NCc1cc(OC)cc(OC)c1 [NA112A, (S)-2-(3-benzylureido)-N-((S)-1-((3,5-dimethoxybenzyl)amino)-1,2-dioxopentan-3-yl)-4-methylpentanamide] | – | – | – | – | expected inhibitory activity | rapidly inactivated; also recorded: became inactive
CC[C@@H](NC(=O)[C@H](CC(C)C)NC(=O)NCc1ccccc1)C(=O)C(=O)NCc1cccc(Cl)c1OC [NA184B] | no inhibitory activity | no inhibitory activity | – | – | – | –
